How the values were obtained:
CDK1/Cyclin B = molecular target: T1, CDK1/Cyclin B (Homo sapiens, UniProt P06493); test: Enzymatic assay for CDK1 (LANCE Ultra kinase assay, FRET based); type: biochemical; details: ATP at Km; read-out: CDK1 enzymatic activity IC50
T1 construct: purchased Invitrogen PR4768C
Method: (§1) Enzymatic Binding Assay Protocol for CDK1, CDK2, CDK5 and CDK7
(§2) Inhibition activity of the respective compound on CDK kinase under Km value of ATP was tested in FRET based The LANCE® Ultra kinase assay (Perkin Elmer), which uses a ULight™-labeled peptide substrate and an appropriate Europium-labeled anti-phospho-antibody. […] After 1 min centrifugation at 1000 rpm, purified CDKs/Cyclin complex were added with the following concentrations respectively. […] Data were analyzed using XL Fit software.

CDK2/Cyclin A = molecular target: T2, CDK2/Cyclin A (Homo sapiens, UniProt P24941); test: Enzymatic assay for CDK2 (LANCE Ultra kinase assay, FRET based); type: biochemical; details: ATP at Km
T2 construct: purchased Invitrogen PV6290
Method: as §1
(§3) Inhibition activity of the respective compound on CDK kinase under Km value of ATP was tested in FRET based The LANCE® Ultra kinase assay (Perkin Elmer), which uses a ULight™-labeled peptide substrate and an appropriate Europium-labeled anti-phospho-antibody. Test compounds were made with DMSO solutions, and then 4-fold serial dilutions for 8 doses were prepared using automated liquid handler (POD™ 810, Labcyte) and 80 nL/well of diluted compound solutions were added into the 384-well plates (Greiner, Cat #784075). And then 68 nM of ULight-MBP peptide (Perkin Elmer, Cat #TRF0109-M) and 5 ul/well of ATP (Sigma, Cat #A7699) were added to the plate. After 1 min centrifugation at 1000 rpm, purified CDKs/Cyclin complex were added with the following concentrations respectively. 24 uM for CDK1/Cyclin B (Invitrogen, Cat #PR4768C), 22 uM for CDK2/Cyclin A (Invitrogen, Cat #PV6290), 10 uM for CDK5/p25 (Invitrogen, Cat #PR8543B) and […] for CDK7/Cyclin H/MNAT1 (Invitrogen, Cat #PR6749B) were added to each corresponding plate for CDK1, CDK2, CDK5 and CDK7. Incubate at 23° C. for 60 min and then Eu-labeled anti-phospho-Myelin Basic Protein (PE, Cat #TRF0201-M) and EDTA (Invitrogen, Cat #15575038) mixture in Lance Detection Buffer (Perkin Elmer, Cat #CR97100) was added in each well. After additional incubation at 23° C. for 60 min, test articles were measured the fluorescence using Envision leader (Perkin Elmer, USA) [Laser as excitation light; […] as the first and the second emission filter]. Data were analyzed using XL Fit software.

CDK5/p25 = molecular target: T3, CDK5/p25 (Homo sapiens, UniProt Q00535); test: Enzymatic assay for CDK5 (LANCE Ultra kinase assay, FRET based); type: biochemical; details: ATP at Km
T3 construct: purchased Invitrogen PR8543B
Method: as §1, §3

CDK7/Cyclin H/MNAT1 = molecular target: T4, CDK7/Cyclin H/MNAT1 (Homo sapiens, UniProt P50613); test: Enzymatic assay for CDK7 (LANCE Ultra kinase assay, FRET based); type: biochemical; details: for IC50: ATP at Km
T4 construct: purchased Invitrogen PR6749B
Method: as §1, §2

A2780 = A2780 viability assay (CellTiter-Glo, 72 hours); type: cell-based; details: Homo sapiens; A2780 cells
Method: Human […] cell line, MV4-11_(ATCC, Cat #CRL-9591), NSCLC (Non-small cell lung cancer) cell line H460 (ATCC, Cat #HTB-177), A2780 (ECACC, Cat #93112519) and OVCAR-3(ATCC, Cat #HTB-161) were obtained from ATCC. Cells were grown in RPMI-1640 media (Invitrogen, Cat #22400-089) supplemented with 10% FBS (Invitrogen, Cat #10099141) and 1% penicillin/streptomycin (Invitrogen, Cat #15070063) and cultured at 37° C., 5% CO2 in a humidified chamber. All cell lines were routinely tested for mycoplasma.
To effect of the CDK7 inhibitor to inhibit the growth of target cancer cells, viability assay were conducted a 72 hour time period. Briefly, the candidate cell line was plated in 96 well plate at the following density of cells respectively. 1×10^4 cells/well for MV4-11, 5×10^3 for H460 and OVCAR-3, and 1×10^3 for A2780. After 24 hours, the cells were treated with various concentrations of the compound (ranging from 0.0015 uM to 10 uM). DMSO solvent without compound served as a control and final DMSO concentration lest than 0.1%. After 72 hours of incubation at 37° C., 5% CO2 incubator, cells were analyzed for the viability using the CellTiter-Glo Luminescent Cell Viability Assay (Promega, Cat #G7570). All viability assays were performed in duplicate and Luminescence was read using an Envision (Perkin Elmer, USA). Data was analyzed using XLfit software.

T4 sequence (P50613 whole entry): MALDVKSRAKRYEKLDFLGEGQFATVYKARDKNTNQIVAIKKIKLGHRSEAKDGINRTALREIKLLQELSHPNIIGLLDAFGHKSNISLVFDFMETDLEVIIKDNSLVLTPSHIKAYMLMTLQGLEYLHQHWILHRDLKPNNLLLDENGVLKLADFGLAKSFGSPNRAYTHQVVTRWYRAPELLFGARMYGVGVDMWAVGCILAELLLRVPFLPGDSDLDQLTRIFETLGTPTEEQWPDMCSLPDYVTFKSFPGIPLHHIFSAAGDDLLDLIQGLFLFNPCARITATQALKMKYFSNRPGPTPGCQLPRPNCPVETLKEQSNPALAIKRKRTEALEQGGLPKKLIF
T4 sequence (P51946 whole entry partner): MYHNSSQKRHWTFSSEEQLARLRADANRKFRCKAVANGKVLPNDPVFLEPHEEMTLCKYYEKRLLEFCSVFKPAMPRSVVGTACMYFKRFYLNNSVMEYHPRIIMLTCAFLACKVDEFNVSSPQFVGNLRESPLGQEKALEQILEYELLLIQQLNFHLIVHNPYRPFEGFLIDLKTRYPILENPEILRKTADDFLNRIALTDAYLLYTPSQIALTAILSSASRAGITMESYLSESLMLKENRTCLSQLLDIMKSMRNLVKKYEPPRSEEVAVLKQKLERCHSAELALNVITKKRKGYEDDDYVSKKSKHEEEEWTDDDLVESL
T4 sequence (P51948 whole entry partner): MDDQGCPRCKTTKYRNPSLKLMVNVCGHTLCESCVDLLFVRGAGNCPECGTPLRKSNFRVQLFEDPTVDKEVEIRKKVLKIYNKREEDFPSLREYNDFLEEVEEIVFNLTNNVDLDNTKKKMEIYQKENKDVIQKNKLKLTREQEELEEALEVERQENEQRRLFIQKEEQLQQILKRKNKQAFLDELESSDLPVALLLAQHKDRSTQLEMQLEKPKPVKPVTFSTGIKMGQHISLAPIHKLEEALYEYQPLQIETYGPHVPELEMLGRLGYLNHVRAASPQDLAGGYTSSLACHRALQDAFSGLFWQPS
T1 sequence (P06493 whole entry): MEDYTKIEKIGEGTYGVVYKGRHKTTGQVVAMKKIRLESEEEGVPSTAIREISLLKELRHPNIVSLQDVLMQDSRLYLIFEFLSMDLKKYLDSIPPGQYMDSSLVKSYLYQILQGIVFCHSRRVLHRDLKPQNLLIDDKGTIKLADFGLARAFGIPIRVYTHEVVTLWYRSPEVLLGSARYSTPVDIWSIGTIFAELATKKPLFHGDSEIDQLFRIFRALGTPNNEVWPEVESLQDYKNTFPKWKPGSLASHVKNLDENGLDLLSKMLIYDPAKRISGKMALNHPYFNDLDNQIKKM
T1 sequence (P14635 whole entry partner): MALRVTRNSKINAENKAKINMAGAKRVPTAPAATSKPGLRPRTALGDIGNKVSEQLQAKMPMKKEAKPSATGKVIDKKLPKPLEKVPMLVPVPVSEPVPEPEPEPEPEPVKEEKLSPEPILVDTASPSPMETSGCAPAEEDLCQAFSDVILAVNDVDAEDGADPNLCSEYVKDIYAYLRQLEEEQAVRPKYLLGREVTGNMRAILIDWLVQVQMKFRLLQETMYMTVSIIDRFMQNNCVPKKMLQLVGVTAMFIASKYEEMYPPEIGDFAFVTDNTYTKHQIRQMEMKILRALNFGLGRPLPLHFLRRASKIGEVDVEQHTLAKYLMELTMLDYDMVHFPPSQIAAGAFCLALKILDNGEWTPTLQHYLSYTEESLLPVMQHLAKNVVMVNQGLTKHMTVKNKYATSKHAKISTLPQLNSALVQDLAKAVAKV
T3 sequence (Q00535 whole entry): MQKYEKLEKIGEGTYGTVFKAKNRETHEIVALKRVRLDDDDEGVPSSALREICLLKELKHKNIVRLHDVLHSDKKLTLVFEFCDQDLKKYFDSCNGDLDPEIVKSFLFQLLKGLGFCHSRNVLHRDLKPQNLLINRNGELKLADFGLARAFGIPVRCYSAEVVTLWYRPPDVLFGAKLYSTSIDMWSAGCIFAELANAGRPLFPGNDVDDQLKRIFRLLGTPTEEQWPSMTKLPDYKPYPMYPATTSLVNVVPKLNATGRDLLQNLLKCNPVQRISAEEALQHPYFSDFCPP
T3 sequence (Q15078 99-307 partner limits assumed): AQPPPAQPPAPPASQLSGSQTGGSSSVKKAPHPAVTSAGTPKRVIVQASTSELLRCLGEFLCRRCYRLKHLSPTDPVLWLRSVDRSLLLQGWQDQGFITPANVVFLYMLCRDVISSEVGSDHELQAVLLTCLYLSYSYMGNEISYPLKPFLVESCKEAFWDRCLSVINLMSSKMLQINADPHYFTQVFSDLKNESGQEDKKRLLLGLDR

| IC50 (CDK1/Cyclin B) | IC50 (CDK2/Cyclin A) | IC50 (CDK5/p25) | IC50 (CDK7/Cyclin H/MNAT1) | CDK1/CDK7: Selectivity of CDK7 inhibition over CDK1 inhibition (CDK7/Cyclin H/MNAT1) | CDK2/CDK7: Selectivity of CDK7 inhibition over CDK2 inhibition (CDK7/Cyclin H/MNAT1) | CDK5/CDK7: Selectivity of CDK7 inhibition over CDK5 inhibition (CDK7/Cyclin H/MNAT1) | IC50 (A2780) | Structure (SMILES) |
| --- | --- | --- | --- | --- | --- | --- | --- | --- |
| > 1 µM | > 1 µM | > 1 µM | < 0.1 µM | A (A indicates [fold] > 500) | A (A indicates [fold] > 500) | A (A indicates [fold] > 500) | < 1 µM | CC(C)c1cnn2c(NCc3ccccc3-c3nccc4cc(NC(=O)/C=C/CN(C)C)ccc34)cc(C(F)(F)F)nc12 [Compound 204] |
| > 1 µM | > 1 µM | > 1 µM | < 0.1 µM | B (B indicates 50 < [fold] ≤ 500) | B (B indicates 50 < [fold] ≤ 500) | B (B indicates 50 < [fold] ≤ 500) | < 1 µM | C=CC(=O)Nc1ccc2c(-c3ccccc3CNc3nc(N4CCN(CC(F)(F)F)CC4)nc4c(C(C)C)cnn34)nccc2c1 [Compound 210] |
| > 1 µM | > 1 µM | > 1 µM | < 0.1 µM | A (A indicates [fold] > 500) | A (A indicates [fold] > 500) | A (A indicates [fold] > 500) | < 1 µM | C=CC(=O)Nc1ccc2c(-c3ccccc3CNc3nc(N4CCNC(C(F)(F)F)C4)nc4c(C(C)C)cnn34)nccc2c1 (stereo not drawn) [Compound 211] |
| > 1 µM | > 1 µM | > 1 µM | < 0.1 µM | B (B indicates 50 < [fold] ≤ 500) | B (B indicates 50 < [fold] ≤ 500) | B (B indicates 50 < [fold] ≤ 500) | < 1 µM | C=C(Br)C(=O)Nc1ccc2c(-c3ccccc3CNc3nc(NC[C@H]4CCNC[C@@H]4O)nc4c(C(C)C)cnn34)nccc2c1 [Compound 205] |
| > 1 µM | > 1 µM | > 1 µM | 0.1 to 1 µM | B (B indicates 50 < [fold] ≤ 500) | B (B indicates 50 < [fold] ≤ 500) | B (B indicates 50 < [fold] ≤ 500) | < 1 µM | C=C(C)C(=O)Nc1ccc2c(-c3ccccc3CNc3nc(Nc4cccnc4)nc4c(C(C)C)cnn34)nccc2c1 [Compound 207] |
| > 1 µM | > 1 µM | > 1 µM | < 0.1 µM | B (B indicates 50 < [fold] ≤ 500) | B (B indicates 50 < [fold] ≤ 500) | B (B indicates 50 < [fold] ≤ 500) | < 1 µM | CC(C)c1cnn2c(NCc3ccccc3-c3nccc4cc(NC(=O)/C=C/CN(C)C)ccc34)nc(S(C)(=O)=O)nc12 [Compound 202] |
| > 1 µM | > 1 µM | > 1 µM | < 0.1 µM | A (A indicates [fold] > 500) | A (A indicates [fold] > 500) | A (A indicates [fold] > 500) | < 1 µM | C=C(Cl)C(=O)Nc1ccc2c(-c3ccccc3CNc3nc(NC[C@H]4CCNC[C@@H]4O)nc4c(C(C)C)cnn34)nccc2c1 [Compound 206] |

Further lines, the molecule ahead of its results:

| Structure (SMILES) | IC50 (CDK1/Cyclin B) | IC50 (CDK2/Cyclin A) | IC50 (CDK5/p25) | IC50 (CDK7/Cyclin H/MNAT1) | CDK1/CDK7: Selectivity of CDK7 inhibition over CDK1 inhibition (CDK7/Cyclin H/MNAT1) | CDK2/CDK7: Selectivity of CDK7 inhibition over CDK2 inhibition (CDK7/Cyclin H/MNAT1) | CDK5/CDK7: Selectivity of CDK7 inhibition over CDK5 inhibition (CDK7/Cyclin H/MNAT1) | IC50 (A2780) |
| --- | --- | --- | --- | --- | --- | --- | --- | --- |
| C=CC(=O)Nc1ccc2c(-c3ccccc3CNc3cc(NC4CCC(C)(C)NC4)nc4c(C(C)C)cnn34)nccc2c1 (stereo not drawn) [Compound 184] | > 1 µM | > 1 µM | > 1 µM | < 0.1 µM | A (A indicates [fold] > 500) | A (A indicates [fold] > 500) | A (A indicates [fold] > 500) | < 1 µM |
| C=CC(=O)Nc1ccc2c(-c3ccccc3CNc3nc(-c4ccncc4)nc4c(C(C)C)cnn34)nccc2c1 [Compound 201] | > 1 µM | > 1 µM | > 1 µM | < 0.1 µM | B (B indicates 50 < [fold] ≤ 500) | B (B indicates 50 < [fold] ≤ 500) | B (B indicates 50 < [fold] ≤ 500) | < 1 µM |
| C=CC(=O)Nc1ccc2c(-c3ccccc3CNc3cc(C(F)(F)F)nc4c(C(C)C)cnn34)nccc2c1 [Compound 198] | > 1 µM | > 1 µM | > 1 µM | < 0.1 µM | B (B indicates 50 < [fold] ≤ 500) | B (B indicates 50 < [fold] ≤ 500) | B (B indicates 50 < [fold] ≤ 500) | < 1 µM |
| C=C(F)C(=O)N1CCc2c(cccc2-c2ccccc2CNc2nc(N[C@@H]3CCCNC3)nc3c(C(C)C)cnn23)C1 [Compound 192] | > 1 µM | > 1 µM | > 1 µM | < 0.1 µM | A (A indicates [fold] > 500) | A (A indicates [fold] > 500) | A (A indicates [fold] > 500) | < 1 µM |
| C=CC(=O)Nc1ccc2c(-c3ccccc3CNc3nc(Nc4cccnc4)nc4c(C(C)C)cnn34)nccc2c1 [Compound 188] | > 1 µM | > 1 µM | > 1 µM | < 0.1 µM | A (A indicates [fold] > 500) | A (A indicates [fold] > 500) | A (A indicates [fold] > 500) | < 1 µM |
| CC(C)c1cnn2c(NCc3ccccc3-c3nccc4cc(NC(=O)/C=C/CN(C)C)ccc34)cc(NC3CCC(F)(F)CC3)nc12 [Compound 185] | > 1 µM | > 1 µM | > 1 µM | < 0.1 µM | A (A indicates [fold] > 500) | A (A indicates [fold] > 500) | A (A indicates [fold] > 500) | < 1 µM |
| C=CC(=O)Nc1ccc2c(-c3ccccc3CNc3cc(NC4CCC(F)(F)CC4)nc4c(C(C)C)cnn34)nccc2c1 [Compound 186] | > 1 µM | > 1 µM | > 1 µM | < 0.1 µM | A (A indicates [fold] > 500) | A (A indicates [fold] > 500) | A (A indicates [fold] > 500) | < 1 µM |
| C=C(F)C(=O)N1CCc2c(ccnc2-c2ccccc2CNc2nc(OC3CCC(C)(C)NC3)nc3c(C(C)C)cnn23)C1 (stereo not drawn) [Compound 199] | > 1 µM | > 1 µM | > 1 µM | < 0.1 µM | A (A indicates [fold] > 500) | A (A indicates [fold] > 500) | A (A indicates [fold] > 500) | < 1 µM |

Source: patent publication US12606561B2, “Substituted pyrazolo[1,5-a][1,3,5]triazines as CDK inhibitors” (QURIENT CO., LTD., priority 2018, dated 2026)
